How the values were obtained:
Mus musculus [1] = experiment: Net log cell kill was determined after injecting 7.5 mg/kg intraperitoneally in CD2F1 mice; format: functional; settings: route intraperitoneal
Mus musculus [2] = experiment: Net log cell kill was determined after injecting 1.87 mg/kg intraperitoneally in CD2F1 mice; format: functional; settings: route intraperitoneal
Mus musculus [3] = experiment: Net log cell kill was determined after injecting 15 mg/kg intraperitoneally in CD2F1 mice; format: functional; settings: route intraperitoneal
Mus musculus [4] = experiment: Body weight change of test animals to that of control was determined after injection at 7.5 mg/kg intraperitoneally in CD2F1 mice; format: functional; settings: route intraperitoneal
Mus musculus [5] = experiment: Net log cell kill was determined after injecting 3.75 mg/kg intraperitoneally in CD2F1 mice; format: functional; settings: route intraperitoneal
Mus musculus [6] = experiment: Net log cell kill was determined after injecting 30 mg/kg intraperitoneally in CD2F1 mice; format: functional; settings: route intraperitoneal
Mus musculus [7] = experiment: Body weight change of test animals to that of control was determined after injection at 1.87 mg/kg intraperitoneally in CD2F1 mice; format: functional; settings: route intraperitoneal
Mus musculus [8] = experiment: Body weight change of test animals to that of control was determined after injection at 15 mg/kg intraperitoneally in CD2F1 mice; format: functional; settings: route intraperitoneal
Mus musculus [9] = experiment: Body weight change of test animals to that of control was determined after injection at 3.75 mg/kg intraperitoneally in CD2F1 mice; format: functional; settings: route intraperitoneal
Mus musculus [10] = experiment: Body weight change of test animals to that of control was determined after injection at 30 mg/kg intraperitoneally in CD2F1 mice; format: functional; settings: route intraperitoneal
Mus musculus [11] = experiment: Toxicity day survivors was determined by the ratio of animals survived to that of test animals at 3.75 mg/kg intraperitoneally in CD2F1 mice; 5/5; format: organism-based; set-up: dose 3.75 mg/kg, route intraperitoneal; settings: in vivo, ip
Mus musculus [12] = experiment: Toxicity day survivors was determined by the ratio of animals survived to that of test animals at 30 mg/kg intraperitoneally in CD2F1 mice; 6/6; format: organism-based; set-up: dose 30 mg/kg, route intraperitoneal; settings: in vivo, ip
Mus musculus [13] = experiment: Toxicity day survivors was determined by the ratio of animals survived to that of test animals at 60 mg/kg intraperitoneally in CD2F1 mice; 0/6; format: organism-based; set-up: dose 60 mg/kg, route intraperitoneal; settings: in vivo, ip
Mus musculus [14] = experiment: Toxicity day survivors was determined by the ratio of animals survived to that of test animals at 1.87 mg/kg intraperitoneally in CD2F1 mice; 5/5; format: organism-based; set-up: dose 1.87 mg/kg, route intraperitoneal; settings: in vivo, ip
Mus musculus [15] = experiment: Toxicity day survivors was determined by the ratio of animals survived to that of test animals at 15 mg/kg intraperitoneally in CD2F1 mice; 4/4; format: organism-based; set-up: dose 15 mg/kg, route intraperitoneal; settings: in vivo, ip
Mus musculus [16] = experiment: Ratio of treated to that of untreated tumor-bearing control animals at 30 mg/kg intraperitoneally in CD2F1 mice was determined; format: functional; settings: route intraperitoneal
Mus musculus [17] = experiment: Ratio of treated to that of untreated tumor-bearing control animals at 7.5 mg/kg intraperitoneally in CD2F1 mice was determined; format: functional; settings: route intraperitoneal
Mus musculus [18] = experiment: Ratio of treated to that of untreated tumor-bearing control animals at 1.87 mg/kg intraperitoneally in CD2F1 mice was determined; format: functional; settings: route intraperitoneal
Mus musculus [19] = experiment: Ratio of treated to that of untreated tumor-bearing control animals at 15 mg/kg intraperitoneally in CD2F1 mice was determined; format: functional; settings: route intraperitoneal
Mus musculus [20] = experiment: Toxicity day survivors was determined by the ratio of animals survived to that of test animals at 7.5 mg/kg intraperitoneally in CD2F1 mice; 4/4; format: organism-based; set-up: dose 7.5 mg/kg, route intraperitoneal; settings: in vivo, ip
Mus musculus [21] = experiment: Ratio of treated to that of untreated tumor-bearing control animals at 3.75 mg/kg intraperitoneally in CD2F1 mice was determined; format: functional; settings: route intraperitoneal
Mus musculus [22] = experiment: Toxicity day survivors was determined by the ratio of animals survived to that of test animals at 15 mg/kg intraperitoneally in CD2F1 mice; 0/6; format: organism-based; set-up: dose 15 mg/kg, route intraperitoneal; settings: in vivo, ip
Mus musculus [23] = experiment: Toxicity day survivors was determined by the ratio of animals survived to that of test animals at 3.75 mg/kg intraperitoneally in CD2F1 mice; 6/6; format: organism-based; set-up: dose 3.75 mg/kg, route intraperitoneal; settings: in vivo, ip
Mus musculus [24] = experiment: Toxicity day survivors was determined by the ratio of animals survived to that of test animals at 1.87 mg/kg intraperitoneally in CD2F1 mice; 6/6; format: organism-based; set-up: dose 1.87 mg/kg, route intraperitoneal; settings: in vivo, ip
Mus musculus [25] = experiment: Toxicity day survivors was determined by the ratio of animals survived to that of test animals at 7.5 mg/kg intraperitoneally in CD2F1 mice; 6/6; format: organism-based; set-up: dose 7.5 mg/kg, route intraperitoneal; settings: in vivo, ip

| Compound | KE (Mus musculus [1]) | KE (Mus musculus [2]) | T-C (Mus musculus [4]) [g] | KE (Mus musculus [5]) | T-C (Mus musculus [7]) [g] | T-C (Mus musculus [9]) [g] | T/C (Mus musculus [17]) [%] | T/C (Mus musculus [18]) [%] | T/C (Mus musculus [21]) [%] | also measured |
| --- | --- | --- | --- | --- | --- | --- | --- | --- | --- | --- |
| COc1ccc2c(c1)CCc1c(COC(=O)NC(C)C)c(COC(=O)NC(C)C)c(C)n1-2 | -1.31 | -1.56 | -2.9 | -1.45 | -0.6 | -0.8 | 116 | 97 | 105 | KE (Mus musculus [3]): 1.43; KE (Mus musculus [6]): 1.51; T-C (Mus musculus [8]): -6.5 g; T-C (Mus musculus [10]): -4.2 g; TDS (Mus musculus [11]): 5; TDS (Mus musculus [12]): 6; TDS (Mus musculus [13]): 0; TDS (Mus musculus [14]): 5; TDS (Mus musculus [15]): 4; T/C (Mus musculus [16]): 160%; T/C (Mus musculus [19]): 150%; TDS (Mus musculus [20]): 4 |
| Cc1c(COC(=O)NC(C)C)c(COC(=O)NC(C)C)c2n1-c1ccccc1CC2 | -1.64 | -0.14 | -2.8 | 1.47 | -1.5 | -3.6 | 94 | 134 | 155 | TDS (Mus musculus [22]): 0; TDS (Mus musculus [23]): 6; TDS (Mus musculus [24]): 6; TDS (Mus musculus [25]): 6 |
